Data set [1] concerns the target human D2-long dopamine receptor (Homo sapiens (Human), UniProt P14416). Briefly: Radioligand binding (125I-IABN competition), D2. To be noted: HEK cell membranes expressing human D2-long. The procedure:
The affinities of the target compounds were determined using radioligand binding experiments. […] Competition curves were modeled for a single site. Data from competition dose-response curves were analyzed using Tablecurve program (Jandel). IC50 values were converted to equilibrium dissociation constants (Ki values) using the Cheng and Prusoff correction.

Data set [2] concerns Long Evans rats. As to the kind of experiment: Cocaine self-administration under PR schedule of reinforcement. To be noted: 3.75, 7.5 or 15 mg/kg intraperitoneally 10 minutes prior to session; compared to vehicle, ps<0.05; cocaine 0.375, 0.75, […]. The data set is classed as in vivo, rat. On the procedure:
These studies were performed using Long Evans rats using standard protocols (Quinlan M. G. et al. Psychopharmacol. 2004, 175, 53-59; Ranaldi, R. et al. Behav. Pharmacol. 2011, 22, 347-353). Cocaine self-administration sessions were conducted in sixteen operant chambers; eight measuring 30×22×27 cm (l×w×h) and the other eight measuring 26×26×30 cm (l×w×h). Each chamber was situated inside a sound-attenuating box and was equipped with two retractable levers, a white light above each lever, and a tether. Polyethylene tubing, covered by the tether, connected the animal, through a fluid swivel, to a syringe in a syringe pump (Razel, 3.33 rpm). Cocaine was dissolved in 0.9% saline to achieve doses of 0.375, 0.75 and 1.5 mg/kg/injection. […] Each animal was tested with one dose of the D3 antagonist, randomly determined, at as many of the three cocaine doses as possible. After a particular test the animal's cocaine dose was changed to another one (randomly determined) and its baseline BP on the new dose was established. BP during the test session was expressed as the percentage of the average BP obtained during the last three baseline sessions. Percentage of baseline BP and final ratio (i.e. the number of lever presses required for the BP infusion) were analyzed using separate two-way analyses of variance (ANOVAs) with dose of 113 and dose of cocaine as between-groups factors. […]

For data set [3], the system named is Long Evans rats. Briefly: Spontaneous locomotor activity. It is filed as in vivo, rat. To be noted: 10 minutes prior to placement in chambers. The procedure: These studies were performed using Long Evans rats using standard protocols. Locomotor activity chambers measuring 43×43×30 cm (l×w×h) were used for the locomotor activity experiments. Each chamber was equipped with eight photo-emitters positioned along the length of the chamber 6 cm above the floor, each paired directly opposite a photocell. Locomotor activity counts were registered when adjacent beams were broken consecutively. Before receiving any drug, the animals (n=96) were placed in locomotor activity chambers for habituation, for 2 hours per day for 3 consecutive days. Based on the locomotor activity score obtained during the third habituation session, animals were assigned into one of […] treatment groups. […] For the 113 alone experiments, each of the four groups received one of 4 doses of 113 (0, 3.75, 7.5 or 15 mg/kg) 10 minutes prior to placement in the activity chambers. For the 113 cocaine interaction experiments, each of 4 groups were injected with one of the 4 doses of the compound (0, 3.75, 7.5 or 15 mg/kg) 10 minutes before receiving 10 mg/kg of cocaine as the second injection. […] The locomotor counts in the 113 alone and 113/cocaine experiments were analyzed using two separate mixed-design ANOVAs with 113 dose (between-groups) and 5-min bins (repeated measures) as factors. […]

As usually defined, the Ki is the dissociation constant of the complex between target and ligand, obtained from inhibition or displacement.

Chain of human D2-long dopamine receptor (P14416 whole entry): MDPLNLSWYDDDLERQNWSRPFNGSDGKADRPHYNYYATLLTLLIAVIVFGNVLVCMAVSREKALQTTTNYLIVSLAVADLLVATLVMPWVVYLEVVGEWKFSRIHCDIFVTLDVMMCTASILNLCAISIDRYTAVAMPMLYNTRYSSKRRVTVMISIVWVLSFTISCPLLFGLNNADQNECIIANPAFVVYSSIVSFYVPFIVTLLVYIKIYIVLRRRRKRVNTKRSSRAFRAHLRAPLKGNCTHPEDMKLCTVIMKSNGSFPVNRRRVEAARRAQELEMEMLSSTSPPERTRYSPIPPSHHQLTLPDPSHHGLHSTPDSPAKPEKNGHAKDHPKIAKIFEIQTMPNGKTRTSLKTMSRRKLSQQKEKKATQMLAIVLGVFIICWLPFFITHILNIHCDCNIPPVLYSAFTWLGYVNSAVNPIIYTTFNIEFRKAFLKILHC

For the molecule `CC(C)(C)c1nc(N2CCN(CCCCNC(=O)c3cn4ccccc4n3)CC2)cc(C(F)(F)F)n1` [Compound 113, N-(4-(4-(2-(tert-Butyl)-6-(trifluoromethyl)pyrimidin-4-yl)piperazin-1-yl)butyl)imidazo[1,2-a]pyridine-2-carboxamide], the Ki in data set [1] came out at 0.511 ± 0.0656 µM. Further, the “percentage of baseline BPs for cocaine under PR schedule” value with Long Evans rats [2] is recorded as “significant reductions in the percentage of baseline BPs”. In addition, the spontaneous locomotor activity entry is “had no effect on spontaneous locomotor activity” in the data set with Long Evans rats [3] (3.75 mg dose); “appeared to reduce locomotor activity in the first 5 minutes of testing but did not affect activity after that” in the data set with Long Evans rats [3] (7.5 and 15 mg doses).

For the origin of these results see patent US9598387B2 (Southern Research Institute, priority 2012, dated 2017).
